As a reminder, the IC50 is the concentration that inhibits the measured activity by half.

Where two headings read alike, the source gives them in different places.

The subject of one assay is MCF-7 cell lines (ATCC). Nature of the assay: Cell growth inhibiting activity (MTT, with 0.1 nM estradiol, 7 days). The assay is classed as cell-based. To be noted: MCF-7 cells, read-out: IC50 value for inhibiting cell growth of 50%. On the procedure:
In this experiment, the cell growth inhibiting activity was determined by using the compounds of Examples 1, 2, 3, 5, 22, 127 and 128 as the test compound and the known anti-estrogenic compound […] having the following structure (see, EP0124369 B1) as the control compound, according to the method described hereinafter.
One day before drug administration, incubated MCF-7 cells were plated in 96-well plate in the concentration of 5×10^3 cells per well. After the 96-well plate was incubated for one day, 0.1 nM of estradiol and the test compound in the given concentration were added to each well. The plate was incubated for 7 days at 37° C. and then MTT solution (Sigma) was added to each well in the amount of 15 μl and allowed to react for 2 hours at 37° C. After the reaction was completed, the solubilizing/stopping solution (constitution: SDS, acetic acid, N,N-dimethylformamide) was added to each well in the amount of 100 μl. Then, the absorption for each well at 570 nm was measured by means of a plate reader. IC50 value for inhibiting cell growth of 50% was calculated from the results as measured and described in the following Table 2.

The subject of assay [1] is ovariectomized mice. The assay can be described thus: Anti-estrogenic activity (subcutaneous administration): inhibition of estradiol-stimulated uterine weight increase. The assay is classed as in vivo, mice (ICR). To be noted: s.c., 3 days; for Inhibition (%) of the increase of uterine weight by estradiol: 30 μg/mouse in peanut oil, ovariectomized ICR mice given 17β-estradiol-benzoate 0.1 μg/day; for inhibition of the increase of uterine weight by estradiol (in words): 30 μg/mouse, ovariectomized mice given 17β-estradiol. On the procedure: Anti-estrogenic activity of the test compound by subcutaneous administration was determined according to the method described hereinafter. In this experiment, the compounds of Examples 1, 2, 3, 4, 5, 22, 127 and 128 were used as the test compound and the known anti-estrogenic compound ZM189154 was used as the control compound as in Experiment 1.
In this experiment, the test compound or the control compound was dissolved in peanut oil (Sigma) and injected subcutaneously for 3 days, once a day. After 24 hours from the last injection, the test animal was sacrificed and uterus was removed and weighed.

Assay [2] deals with ovariectomized mice. Nature of the assay: Anti-estrogenic activity (oral administration): inhibition of estradiol-stimulated uterine weight increase. Type of assay: in vivo. The settings on record: p.o., 3 days, 10 mg/kg in 5% arabic gum solution; ovariectomized ICR mice given 17β-estradiol-benzoate 0.1 μg/day. The procedure:
Oral anti-estrogenic activity in vivo of the test compound was determined according to the method described hereinafter. In this experiment, the compound of Example 3, 22, 127 and 128 were used as the test compound and the known anti-estrogenic compound ZM189154 was used as the control compound as in Experiment 2.
In this experiment, the test compound or the control compound was suspended in 5% arabic gum solution and orally administered for 3 days, once a day. After 24 hours from the last administration, the test animal was sacrificed and uterus was removed and weighed.

[3] abbreviates: 7 days at 37° C., absorption at 570 nm.

Consider “7-hydroxy-3-(4-hydroxyphenyl)-3-methyl-4-{9-[4-(4,4,5,5,5-pentafluoropentyl)piperazinyl]nonyl}chroman [Example 1]”, for which, in the assay with MCF-7 cell lines (ATCC) (setting [3]), the IC50 worked out at 60.4 nM. Further, in the assay with ovariectomized mice [1], the “Inhibition (%) of the increase of uterine weight by estradiol” value is listed as 27.5% and the “inhibition of the increase of uterine weight by estradiol (in words)” value is on record as “substantially inhibit”.
With `CN(CCCCC[C@H]1c2ccc(O)cc2OC[C@@]1(C)c1ccc(O)cc1)CCCSCCCC(F)(F)C(F)(F)F` (racemic) [Example 4, (3RS,4RS)-7-hydroxy-3-(4-hydroxyphenyl)-4-{5-[N-methyl-N-3-(4,4,5,5,5-pentafluoropentylthio)propylamino]pentyl}-3-methylchroman], the “Inhibition (%) of the increase of uterine weight by estradiol” value in the assay on ovariectomized mice [1] was found to be 26.4%.
For `C[C@]1(c2ccc(O)cc2)CCc2cc(O)ccc2C1CCCCCCCCC[S+]([O-])CCCC(F)(F)C(F)(F)F` (stereo partly drawn) [ZM189154, reference compound], the IC50 in the assay with MCF-7 cell lines (ATCC) (Homo sapiens, MCF7, 168 h, 7 days, control compound, (cis)) was 9.2 nM; with MCF-7 cell lines (ATCC) (Homo sapiens, MCF7, 168 h, 7 days, control compound, (trans)), 77 nM. Also, the “Inhibition (%) of the increase of uterine weight by estradiol” value with ovariectomized mice [2] is reported as 41.7%; in the assay on ovariectomized mice [1] it was 73.8%.
With `CC1(c2ccc(O)cc2)CSc2cc(O)ccc2C1CCCCCCCCC(CCCC(F)(F)C(F)(F)F)C(=O)O` (stereo not drawn) [Example 22, (3′RS,4′RS)-10-[7-hydroxy-3-(4-hydroxyphenyl)-3-methyltbiochroman-4-yl]-2-(4,4,5,5,5-pentafluoropentyl)decanoic acid], the IC50 in the assay on MCF-7 cell lines (ATCC) (setting [3]) worked out at 850 nM. Besides, the “Inhibition (%) of the increase of uterine weight by estradiol” value in the assay on ovariectomized mice [2] is listed as 81.3%. Further, in the assay on ovariectomized mice [1], the “Inhibition (%) of the increase of uterine weight by estradiol” value was found to be 51.0% and the “inhibition of the increase of uterine weight by estradiol (in words)” value is listed as “substantially inhibit”.
With `CCCCN=C(CCCCCCCCCC[C@H]1c2ccc(O)cc2OC[C@@]1(C)c1ccc(O)cc1)NCCCC` (racemic) [Compound II of Example 2, (3RS,4RS)-7-hydroxy-4-[(11-N-butylimino-11-N-butylamino)undecyl]-3-(4-hydroxyphenyl)-3-methylchroman], in the assay on MCF-7 cell lines (ATCC) (setting [3]), the IC50 amounted to 1000 nM. The “Inhibition (%) of the increase of uterine weight by estradiol” value in the assay on ovariectomized mice [1] is listed as −9.3%.
`CC(C)(C)c1cc(CN2CCN(CCOc3ccc([C@@H]4c5ccc(O)cc5OC[C@@]4(C)c4ccc(O)cc4)cc3)CC2)cc(C(C)(C)C)c1` (racemic) [Example 3, (3RS,4SR)-7-hydroxy-4-{4-{2-{4-{[3,5-bis(t-butyl)phenyl]methyl}piperazinyl}ethoxy}phenyl}-3-(4-hydroxyphenyl)-3-methylchroman]: in the assay on MCF-7 cell lines (ATCC) (setting [3]), the IC50 worked out at 54.5 nM. Also, the “Inhibition (%) of the increase of uterine weight by estradiol” value in the assay with ovariectomized mice [2] amounted to 0.6%; in the assay on ovariectomized mice [1], 11.7%.
Consider `CCCCNC(=N)CCCCCCCCCC[C@H]1c2ccc(O)cc2OC[C@@]1(C)c1ccc(O)cc1` (racemic) [Compound I of Example 2, (3RS,4RS)-7-hydroxy-4-[(11-imino-11-N-butylamino)undecyl]-3-(4-hydroxyphenyl)-3-methylchroman], for which the IC50 in the assay with MCF-7 cell lines (ATCC) (setting [3]) came out at 67.5 nM. The “Inhibition (%) of the increase of uterine weight by estradiol” value in the assay on ovariectomized mice [1] was found to be 30.8%.
For `[O-][S+](CCCC(F)(F)C(F)(F)F)CCOCCOc1ccc(C2=C(c3ccc(O)cc3)COc3cc(O)ccc32)cc1` (stereo not drawn) [Example 5, 4-{4-{2-[2-(4,4,5,5,5-pentafluoropentylsulfinyl)ethoxy]ethoxy}phenyl}-7-hydroxy-3-(4-hydroxyphenyl)-2H-chromene], the IC50 with MCF-7 cell lines (ATCC) (Homo sapiens, MCF7, 168 h, 7 days at 37° C., absorption at 570 nm) was 387 nM. For the same compound, the “Inhibition (%) of the increase of uterine weight by estradiol” value in the assay on ovariectomized mice [1] is given as 9.8%.
